In patent US20150148256A1, “BIOLUMINESCENCE IMAGING-BASED SCREENING ASSAY AND INHIBITORS OF ABCG2” (THE JOHNS HOPKINS UNIVERSITY, priority 2008, published 2015):
Structures can show the parent of a compound that is named as a salt. Where two headings read alike, the source gives them in different places.

Columns and labels:
ABCG2 [1] = target: T1, ABCG2 (Homo sapiens, UniProt Q9UNQ0); experiment: Bioluminescence imaging (BLI) assay in HEK293/ABCG2/fLuc cells
T1 sequence (Q9UNQ0 1-655): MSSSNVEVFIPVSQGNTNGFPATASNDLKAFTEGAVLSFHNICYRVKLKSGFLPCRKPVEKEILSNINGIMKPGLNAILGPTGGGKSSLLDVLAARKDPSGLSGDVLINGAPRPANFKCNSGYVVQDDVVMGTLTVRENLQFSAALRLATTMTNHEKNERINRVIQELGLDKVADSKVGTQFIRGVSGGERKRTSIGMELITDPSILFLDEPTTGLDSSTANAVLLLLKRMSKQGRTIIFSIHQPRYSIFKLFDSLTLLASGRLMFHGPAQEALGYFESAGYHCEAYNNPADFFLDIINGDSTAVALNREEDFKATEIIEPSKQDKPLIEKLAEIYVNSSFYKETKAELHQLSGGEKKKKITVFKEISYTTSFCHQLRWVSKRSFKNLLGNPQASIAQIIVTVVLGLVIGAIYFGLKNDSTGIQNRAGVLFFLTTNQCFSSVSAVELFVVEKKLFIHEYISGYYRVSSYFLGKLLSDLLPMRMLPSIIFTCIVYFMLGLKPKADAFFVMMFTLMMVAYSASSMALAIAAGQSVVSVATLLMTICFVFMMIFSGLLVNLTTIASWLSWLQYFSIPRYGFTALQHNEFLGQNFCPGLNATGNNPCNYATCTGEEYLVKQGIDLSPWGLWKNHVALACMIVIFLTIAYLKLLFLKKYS
Outline: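 Light output from HEK293/ABCG2/fLuc cells plated at 4×10^4 per well, treated with compounds, imaged every 5 min for ~1 h. Values are signal-to-background ratios versus solvent control at 40 min, indicating ABCG2 inhibition. Dose range 0.001 μM-100 μM with 50 μg/mL D-luciferin for selected compounds.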

[2] = test system: ABCG2-overexpressing NCI-H460/MX20 cells; settings: for cytotoxicity in the MTX resensitization assay: compound 20 μM, H460/MX20 cells
[3] = target: T2, MRP1 (Multiple Drug Resistance Protein 1) (Homo sapiens, UniProt P33527); experiment: Colchicine resensitization assay in MDCKII cells overexpressing MRP1; assay type: cell-based; settings: for MRP1 inhibition: even at relatively high concentration (30 μM)
T2 construct: expressed in transfected cells; host or cells: MDCKII
Description: The ABC transporter-inhibiting ability of the potential inhibitors identified were further tested by evaluating their ability to resensitize ABCG2-overexpressing NCI-H460/MX20 cells to MTX, or MDCKII cells overexpressing Pgp or MRP1, to Col. Cells were plated in 96-well plates at 1×10^4 per well and allowed to attach. […] Colchicine was added at 1 μM for MDCKII/Pgp cells and 0.3 μM for MDCKII/MRP1 cells. […] In brief, 1 mg/ml XTT (Polysciences, Warrington, Pa.) was mixed with 0.025 mM PMS (Sigma), and 50 μl of the mixture was added to each well and incubated for 4 hours at 37° C. After the plates were mixed on a plate shaker, absorbance at 450 nm was measured. All results were normalized to a percentage of absorbance obtained in controls.
MDCKII cells overexpressing Pgp or MRP1 were incubated for two days in medium containing 1 μM (for Pgp) or 0.3 μM (for MRP1) Col and increasing concentrations of each ABCG2 inhibitor.

ABCG2 [4] = target: T1, ABCG2; experiment: BODIPY-prazosin uptake assay (flow cytometry) in HEK293/ABCG2 cells; settings: compound 20 μM; for BP (BODIPY-prazosin dye uptake assay): 1 h; for BODIPY-prazosin assay result: flow cytometry
[5] = Table 2, HEK293/ABCG2/fLuc cells, compound approximately 17 μM, ~50 μg/mL D-luciferin, 40 min time point
[6] = Table 4, approximately 17 μM, 40 min time point
[7] = compound 1 μM with 15 μM MTX, two days

T2 sequence (P33527 whole entry): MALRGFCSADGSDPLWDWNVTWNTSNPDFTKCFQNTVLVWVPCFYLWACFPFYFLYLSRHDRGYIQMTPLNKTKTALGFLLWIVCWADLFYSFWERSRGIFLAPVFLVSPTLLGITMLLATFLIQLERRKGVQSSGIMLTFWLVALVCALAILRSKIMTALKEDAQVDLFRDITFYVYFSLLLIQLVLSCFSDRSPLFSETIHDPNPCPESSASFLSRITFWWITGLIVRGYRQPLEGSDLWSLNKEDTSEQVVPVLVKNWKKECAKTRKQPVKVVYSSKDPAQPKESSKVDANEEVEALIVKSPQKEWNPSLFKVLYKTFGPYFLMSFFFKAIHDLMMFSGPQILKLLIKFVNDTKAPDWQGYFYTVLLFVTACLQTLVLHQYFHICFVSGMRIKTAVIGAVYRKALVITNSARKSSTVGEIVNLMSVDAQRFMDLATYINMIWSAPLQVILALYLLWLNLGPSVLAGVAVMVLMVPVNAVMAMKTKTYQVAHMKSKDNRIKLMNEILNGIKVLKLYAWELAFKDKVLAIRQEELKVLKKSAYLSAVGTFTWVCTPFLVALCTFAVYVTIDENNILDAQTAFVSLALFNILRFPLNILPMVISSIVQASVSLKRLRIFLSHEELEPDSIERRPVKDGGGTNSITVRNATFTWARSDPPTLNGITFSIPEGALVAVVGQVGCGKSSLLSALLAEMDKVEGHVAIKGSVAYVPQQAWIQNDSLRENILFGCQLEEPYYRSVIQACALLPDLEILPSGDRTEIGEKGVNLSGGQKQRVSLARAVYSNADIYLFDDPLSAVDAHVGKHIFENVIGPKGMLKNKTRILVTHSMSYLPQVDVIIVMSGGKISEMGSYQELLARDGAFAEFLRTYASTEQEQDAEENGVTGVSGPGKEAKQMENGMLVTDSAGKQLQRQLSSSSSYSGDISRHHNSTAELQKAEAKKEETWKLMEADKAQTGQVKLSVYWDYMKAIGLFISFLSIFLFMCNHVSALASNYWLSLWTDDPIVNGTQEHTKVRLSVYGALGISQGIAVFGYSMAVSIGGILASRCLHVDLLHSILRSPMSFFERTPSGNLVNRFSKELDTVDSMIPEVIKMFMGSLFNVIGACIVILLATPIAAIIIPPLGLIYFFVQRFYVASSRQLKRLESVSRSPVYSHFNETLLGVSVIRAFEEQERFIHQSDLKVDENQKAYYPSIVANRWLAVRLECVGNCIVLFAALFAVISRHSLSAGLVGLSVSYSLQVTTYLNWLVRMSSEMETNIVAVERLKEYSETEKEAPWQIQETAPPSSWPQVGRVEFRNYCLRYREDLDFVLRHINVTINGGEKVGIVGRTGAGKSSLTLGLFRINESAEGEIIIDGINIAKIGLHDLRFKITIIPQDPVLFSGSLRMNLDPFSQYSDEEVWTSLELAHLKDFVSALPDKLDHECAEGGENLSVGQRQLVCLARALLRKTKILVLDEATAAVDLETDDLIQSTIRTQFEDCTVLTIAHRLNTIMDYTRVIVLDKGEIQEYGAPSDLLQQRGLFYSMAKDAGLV

O=C(c1ccc(OCCN2CCCCC2)cc1)c1c(-c2ccc(O)cc2)sc2cc(O)ccc12 [raloxifene hydrochloride]
Fold (BLI enhancement), previously unknown compounds (ABCG2 [1]; human, 40 min, 17 μM): 5.4 fold | Fold (BLI enhancement, S/B ratio over control) (ABCG2 [1]; human, 40 min, 17 μM): 5.4 fold | MTX (mitoxantrone resensitization assay) ([2]; H460/MX20 cells with MTX): Y

Cc1c(-c2ccccc2)oc2c(C(=O)OCCN3CCCCC3)cccc2c1=O [flavoxate hydrochloride]
IC50 (ABCG2 [1]): 20 µM | Fold (BLI enhancement), previously unknown compounds (ABCG2 [1]; human, 40 min, 17 μM): 11.2 fold | Fold (BLI enhancement, S/B ratio over control) (ABCG2 [1]; human, 40 min, 17 μM): 11.2 fold | MRP1 inhibition [3]: weak | MTX (mitoxantrone resensitization assay) ([2]; H460/MX20 cells with MTX): Y

CC(C)C(=O)Nc1ccc([N+](=O)[O-])c(C(F)(F)F)c1 [flutamide]
Fold (BLI enhancement), previously unknown compounds (ABCG2 [1]; human, 40 min, 17 μM): 6.1 fold | Fold (BLI enhancement, S/B ratio over control) (ABCG2 [1]; human, 40 min, 17 μM): 6.1 fold | MTX (mitoxantrone resensitization assay) ([2]; H460/MX20 cells with MTX): Y

O=C(OCC(O)CO)c1ccccc1Nc1ccnc2cc(Cl)ccc12 (stereo not shown) [glafenine]
IC50 (ABCG2 [1]): 3.2 µM | BLI signal enhancement (ABCG2 [1]; human, 40 min, 17 μM): ~20 fold | Fold (BLI enhancement), previously unknown compounds (ABCG2 [1]; human, 40 min, 17 μM): 20.6 fold | Fold (BLI enhancement, S/B ratio over control) (ABCG2 [1]; human, 40 min, 17 μM): 20.6 fold | concentration from which MDCKII/MRP1 cells are resensitized to Col ([3]; 0.3 μM Col, two days): 10 µM | MTX (mitoxantrone resensitization assay) [2]: Y | concentration that effectively resensitizes H460/MX20 cells to MTX [2]: ≤ 0.001 µM | relative potency in dose-dependent MTX resensitization [2]: more potent ABCG2 inhibitor than FTC, doxazosin mesylate, clebopride maleate, and flavoxate hydrochloride | survival of H460/MX20 cells [2]: 13%

CC(=O)c1ccc2c(c1)N(CCCN(C)C)c1ccccc1S2 [acepromazine]
Fold (BLI enhancement), previously unknown compounds (ABCG2 [1]; human, 40 min, 17 μM): 6.2 fold | Fold (BLI enhancement, S/B ratio over control) (ABCG2 [1]; human, 40 min, 17 μM): 6.2 fold | MTX (mitoxantrone resensitization assay) ([2]; H460/MX20 cells with MTX): Y

acetophenazine maleate
MTX (mitoxantrone resensitization assay) ([2]; H460/MX20 cells with MTX): Y

C[C@H]1O[C@@H](O[C@H]2[C@@H](O)C[C@H](O[C@H]3[C@@H](O)C[C@H](O[C@H]4CC[C@@]5(C)[C@H](CC[C@@H]6[C@@H]5CC[C@]5(C)[C@@H](C7=CC(=O)OC7)CC[C@]65O)C4)O[C@@H]3C)O[C@@H]2C)C[C@H](O)[C@@H]1O [digitoxin]
BLI signal enhancement at lower concentrations (ABCG2 [1]): enhance BLI signal minimally | Fold (BLI enhancement), previously unknown compounds (ABCG2 [1]; human): 5.7 fold | Fold (BLI enhancement, S/B ratio over control) (ABCG2 [1]; human): 5.7 fold | reduction of survival rate of H460/MX20 cells [2]: did not reduce the survival rate of H460/MX20 cells significantly

verteporfin
Fold (BLI enhancement, S/B ratio over control) (ABCG2 [1]; [5]): 11.3 fold | Fold (BLI enhancement), previously unknown compounds (ABCG2 [1]; [6]): 11.3 fold | MTX (mitoxantrone resensitization assay) ([2]; H460/MX20 cells with MTX): Y | resensitization of H460/MX20 cells to MTX [2, 7]: showed resensitization of H460/MX20 cells to MTX | cytotoxicity in the MTX resensitization assay [2]: too cytotoxic to be tested | cytotoxicity in the MTX resensitization assay ([2]; listed as Verteporfin): too cytotoxic to validate by MTX assay | BP (BODIPY-prazosin dye uptake assay) (ABCG2 [4]): N | BODIPY-prazosin assay result (ABCG2 [4]): negative

gramicidin
Fold (BLI enhancement, S/B ratio over control) (ABCG2 [1]; [5]): 6.9 fold | Fold (BLI enhancement), previously unknown compounds (ABCG2 [1]; [6]): 6.9 fold | resensitization of H460/MX20 cells to MTX [2, 7]: showed resensitization of H460/MX20 cells to MTX | cytotoxicity in the MTX resensitization assay [2]: too cytotoxic to be tested

COc1cc(N)c(Cl)cc1C(=O)NC1CCN(Cc2ccccc2)CC1 [clebopride maleate]
IC50 (ABCG2 [1]): 8.2 µM | Fold (BLI enhancement), previously unknown compounds (ABCG2 [1]; human, 40 min, 17 μM): 7.9 fold | Fold (BLI enhancement, S/B ratio over control) (ABCG2 [1]; human, 40 min, 17 μM): 7.9 fold | MRP1 inhibition [3]: weak | MTX (mitoxantrone resensitization assay) ([2]; H460/MX20 cells with MTX): Y

CCCCNc1c(C(=O)OCC)c(C)nc2c1cnn2CC [tracazolate]
Fold (BLI enhancement), previously unknown compounds (ABCG2 [1]; human, 40 min, 17 μM): 20 fold | Fold (BLI enhancement, S/B ratio over control) (ABCG2 [1]; human, 40 min, 17 μM): 20.0 fold | MTX (mitoxantrone resensitization assay) ([2]; H460/MX20 cells with MTX): Y

CCN(CC)CCOc1ccc(C(=C(Cl)c2ccccc2)c2ccccc2)cc1 [clomiphene citrate]
Fold (BLI enhancement), previously unknown compounds (ABCG2 [1]; human, 40 min, 17 μM): 6.7 fold | Fold (BLI enhancement, S/B ratio over control) (ABCG2 [1]; human, 40 min, 17 μM): 6.7 fold | resensitization of H460/MX20 cells to MTX [2, 7]: showed resensitization of H460/MX20 cells to MTX

Cc1cc2nc3c(=O)[nH]c(=O)nc-3n(C[C@H](O)[C@H](O)[C@H](O)CO)c2cc1C [riboflavin]
Fold (BLI enhancement), known compounds (ABCG2 [1]; human, 40 min, 17 μM): 5.4 fold | Fold (BLI enhancement, S/B ratio over control) (ABCG2 [1]; human, 40 min, 17 μM): 5.4 fold | MTX (mitoxantrone resensitization assay) ([2]; H460/MX20 cells with MTX): Y

C=C(C)[C@H]1Cc2c(ccc3c2O[C@@H]2COc4cc(OC)c(OC)cc4[C@@H]2C3=O)O1 [rotenone]
Fold (BLI enhancement), previously unknown compounds (ABCG2 [1]; human): 6.7 fold | Fold (BLI enhancement, S/B ratio over control) (ABCG2 [1]; human): 6.7 fold | MTX (mitoxantrone resensitization assay) [2]: Y | BP (BODIPY-prazosin dye uptake assay) (ABCG2 [4]): Y | BODIPY-prazosin assay result (ABCG2 [4]): positive

CCCCCCCCCCCCOCCOCCOCCOCCO [brij, Brij 30]
resensitization of H460/MX20 cells to MTX ([2]; after two days of incubation (data not shown)): resensitize H460/MX20 cells to MTX significantly

COc1ccccc1N1CCN(CC(O)COc2cccc3ccccc23)CC1 (stereo not shown) [naftopidil]
Fold (BLI enhancement, S/B ratio over control) (ABCG2 [1]; human, 40 min, 17 μM): 2.4 fold

O=C(O)c1cc(O)c2c(c1)C(=O)c1cccc(O)c1C2=O [rhein]
Fold (BLI enhancement, S/B ratio over control) (ABCG2 [1]; human, 40 min, 17 μM): 3.1 fold

CSc1ccc2c(c1)N(CCC1CCCCN1C)c1ccccc1S2 (stereo not shown) [th oridaz ne]
Fold (BLI enhancement, S/B ratio over control) (ABCG2 [1]; [5]): 2.5 fold

CC(=O)c1ccc2c(c1)N(CCCN1CCC(CCO)CC1)c1ccccc1S2 [piperacetazine]
Fold (BLI enhancement), previously unknown compounds (ABCG2 [1]; human, 40 min, 17 μM): 5.8 fold | Fold (BLI enhancement, S/B ratio over control) (ABCG2 [1]; human, 40 min, 17 μM): 5.8 fold

CCc1c2c(nc3ccc(OC(=O)N4CCC(N5CCCCC5)CC4)cc13)-c1cc3c(c(=O)n1C2)COC(=O)[C@]3(O)CC [irinotecan hydrochloride]
Fold (BLI enhancement, S/B ratio over control) (ABCG2 [1]; human, 40 min, 17 μM): 4.0 fold

Cc1cc(C(C)(C)CC(C)(C)C)ccc1OCCOCC[N+](C)(C)Cc1ccccc1.[Cl-] [methylbenzethonium chloride]
Fold (BLI enhancement, S/B ratio over control) (ABCG2 [1]): 2.1 fold

COc1ccc2c(c1)[nH]c1c(C)nccc12 [harmine]
Fold (BLI enhancement), known compounds (ABCG2 [1]; human): 8.9 fold | Fold (BLI enhancement, S/B ratio over control) (ABCG2 [1]; human): 8.9 fold

CC(C)C[C@H]1C(=O)N2CCC[C@H]2[C@]2(O)O[C@](NC(=O)[C@@H]3C=C4c5cccc6[nH]c(Br)c(c56)C[C@H]4N(C)C3)(C(C)C)C(=O)N12 [bromocriptine mesylate]
Fold (BLI enhancement, S/B ratio over control) (ABCG2 [1]; human): 2.1 fold

ivermect n
Fold (BLI enhancement, S/B ratio over control) (ABCG2 [1]; [5]): 4.3 fold

COc1c2occc2c(OC)c2c(=O)cc(C)oc12 [khellin]
Fold (BLI enhancement, S/B ratio over control) (ABCG2 [1]; human, 40 min, 17 μM): 3.4 fold

CC(C)(C(=O)c1cccnc1)c1cccnc1 [metyrapone, 2-methyl-1,2-dipyridin-3-yl-propan-1-one]
Fold (BLI enhancement), previously unknown compounds (ABCG2 [1]; human, 40 min, 17 μM): 6.3 fold | Fold (BLI enhancement, S/B ratio over control) (ABCG2 [1]; human, 40 min, 17 μM): 6.3 fold | MTX (mitoxantrone resensitization assay) ([2]; H460/MX20 cells with MTX): Y

O=C1C(O)=C([C@H]2CC[C@H](c3ccc(Cl)cc3)CC2)C(=O)c2ccccc21 [atovaquone]
Fold (BLI enhancement, S/B ratio over control) (ABCG2 [1]; human, 40 min, 17 μM): 3.5 fold
